# Assay results: patent US20040002482A1, “Androgen pharmaceutical composition and method for treating depression” (priority 2000, published 2004)
# Read-outs that look alike come from different tables or passages of the source.
# What was measured:
# [1] = system: body weight; conditions: patch delivering 150 ug/day; 12 weeks; cited from earlier work
# [2] = system: impaired sexual function; conditions: cited from earlier work; for serum free testosterone concentration: mean ± SD
# [3] = cited from earlier work
# [4] = system: major depressive disorder; assay: Eight-week randomized placebo-controlled depression trial of testosterone gel: HAM-D, CGI, BDI; type: in vivo, treatment-refractory depressed men
# Protocol: Men age 30-65 years, presently taking an adequate dose of antidepressant medication (as defined by the manufacturer's published product information) for at least the last four weeks, but still complaining of depressive symptoms sufficient to meet DSM-IV criteria for current major depressive disorder. Subjects were initially screened. […] Subjects were then administered the depression module the Structured Clinical Interview for DSM-IV (SCID) to confirm the diagnosis of current major depressive disorder. Subjects were next administered the American Urological Association (AUA) Symptom Index for benign prostatic hyperplasia (B PH), subjects scoring higher than 14 on this index were excluded. Blood was then collected for total testosterone and PSA levels.
# (§1) Next, the subjects were administered: 1) basic demographic questions; 2) the remainder of the SCID; 3) questions regarding history of previous antidepressant drug treatment; 4) the HAM-D; 5) the BDI; 6) the Clinical Global Impression Scale (CGI); 7) medical history questions; 8) physical examination, including vital signs, height, weight, and digital rectal examination of the prostate; 9) laboratory tests for standard chemistries, hematology, urinalysis, and HIV serology; 10) electrocardiogram (EKG); and 11) determination of body fat with calipers, together with calculation of fat-free mass index (FFMI), a measure of muscularity previously developed in our laboratory.
# Qualifying subjects were then started on a one-week single-blind placebo washout with placebo gel. All subjects were asked to continue taking their existing antidepressant medications, together with any other medications that they were prescribed, at their present dose throughout the study.
# Baseline (Week 0): Subjects were assessed for scores on the HAM-D, BDI, and CGI-Severity of Illness; adverse events; and vital signs. Results from the laboratory tests drawn at screen and from EKG readings were also reviewed. […] Drug and placebo were supplied in identical-appearing packets that contained either 2.5 g of AndroGel or a placebo gel.
# Week 1: Subjects were assessed for scores on the HAM-D, BDI, and CGI (both Severity of Illness and Improvement as compared to Baseline); adverse events; and vital signs. Subjects provided blood for a total testosterone level, drawn at least four hours after the morning application of the gel.
# (§2) Weeks 2, 4, 6, and 8: Subjects were assessed at weeks 2, 4,6 and 8 for HAM-D, BDI, CGI, adverse events, and vital signs. Week 8, subjects received an additional determination of PSA and measurement of weight and body fat. The blind was then broken and the correct identity of treatment assignment determined.
# Statistical Analysis: Baseline characteristics of each group were compared using Fisher's exact test for categorical variables and the […] for continuous variables. Two populations of patients were defined: (1) an intent-to-treat group of patients with at least one available efficacy measure, and (2) a completers group, defined as patients who completed the 8-week treatment period.
# The primary protocol-defined analysis of efficacy was a repeated measures random regression analysis comparing the rate of change of scores on the HAM-D, BDI, and CGI-severity during the treatment period between groups, using methods described by Diggle et al. and Gibbons et al. A model was used for the mean of the outcome variable that included terms for treatment, time, and treatment-by-time interaction. Time as a continuous variable was modeled, with weeks ranging from 0 (Baseline) to 8 (after randomization). The measure of effect was the treatment-by-time interaction (or the difference in the rate of change per unit of time, or the difference in slope with respect to time) of the efficacy measure. […]
# [5] = system: body fat and muscle mass; assay: Depression trial: percent body fat and fat-free mass index (FFMI); type: in vivo, treatment-refractory depressed men; conditions: study completers; mean (SD); not significant vs placebo
# Protocol: as §1, §2
# For laboratory measures, including body fat and FFMI, the mean difference between endpoint and baseline measures were used, and then compared the treatment groups using the t-test. The correlation coefficients were calculated by using rank-transformed data (Spearman rank correlation). All statistical tests were two-sided with alpha=0.05.
# [6] = system: depression; conditions: cited from earlier work
# [7] = 10 grams of 1% gel daily added to existing antidepressant, 8 weeks
# [8] = Completers, Week 8 as endpoint, N = 10
# [9] = Intent to Treat, last observation carried forward, N = 11
structure (smiles),measurement,setting,value
C[C@]12CC[C@H]3[C@@H](CCC4=CC(=O)CC[C@@]43C)[C@@H]1CC[C@@H]2O [testosterone],increase in body weight,[1],4%
same,serum free testosterone concentration,[2]; 160 μg per day (so in the source) transdermally,3.9 ± 2.4 pg/mL
same,serum free testosterone concentration,[2]; 300 μg per day transdermally,4.9 ± 4.8 pg/mL
same,"percentages of women with sexual fantasies, masturbation or intercourse at least once a week, increase from base line",[2]; 300 μg per day,two to three times
same,bound to protein in the blood,[3]; in vivo,98%
same,half-life,[3]; reported in the literature,10 to 100 min
same,CGI-severity scores compared with placebo,[4]; [7],significantly greater rates of decrease
same,HAM-D scores compared with placebo,[4]; [7],significantly greater rate of decrease
same,"BDI, Total Score: mean change from baseline to endpoint",[4]; [8],−6.8
same,CGI-Improvement (mean),[4]; [8],2.9
same,CGI-Severity: mean change from baseline to endpoint,[4]; [8],−1.2
same,"HAM-D, Affective Subscale: mean change from baseline to endpoint",[4]; [8],−2.7
same,"HAM-D, Total score: mean change from baseline to endpoint",[4]; [8],−8.8
same,"HAM-D, Vegetative Subscale: mean change from baseline to endpoint",[4]; [8],−3.5
same,"BDI, Total Score: mean change from baseline to endpoint",[4]; [9],−5.5
same,CGI-Improvement (mean),[4]; [9],3.09
same,CGI-Severity: mean change from baseline to endpoint,[4]; [9],−0.9
same,"HAM-D, Affective Subscale: mean change from baseline to endpoint",[4]; [9],−2.1
same,"HAM-D, Total score: mean change from baseline to endpoint",[4]; [9],−7.4
same,"HAM-D, Vegetative Subscale: mean change from baseline to endpoint",[4]; [9],−3.2
same,change in muscle mass as expressed by FFMI,[5],1.1 (0.9) kg/meter^2
same,change in percent body fat,[5],−2.8 (1.7) %
CCCCCCC(=O)O[C@H]1CC[C@H]2[C@@H]3CCC4=CC(=O)CC[C@]4(C)[C@H]3CC[C@]12C [testosterone enanthate],mean HAM-D score,"[6]; eight weeks, 400 mg every two weeks i.m. with SSRI, 19.2 at baseline, five men",4.0
same,subjects responding (50% or greater reduction in HAM-D),"[6]; randomized placebo-controlled trial, six weeks",About 40%
same,HAM-D or BDI difference vs placebo,"[6]; randomized placebo-controlled trial, six weeks, testosterone alone",no significant difference between testosterone and placebo
